Test results taken from patent US4399139A, “5,6-Dihydro-11-alkylene-morphanthridin-6-ones, their pharmaceutical compositions and method of use” (BASF Aktiengesellschaft, priority 1981, dated 1983).

How the values were obtained:
[1] = Anti-cholinergic side-effect: inhibition of carbachol-stimulated salivation in the rat; design: species or system Sprague-Dawley rats; settings: in vivo, sc; for ED50 at 1 h: administered subcutaneously, carbachol 0.6 mg/kg intraperitoneally after 1 hour, read-out: Salivation-inhibiting action, ED 50; for selectivity ratio: subcutaneously, ratio of salivation-inhibiting to secretion-inhibiting dose, read-out: Salivation-inhibiting action, ED 50/ED 0.75
Procedure: (§1) After 1 hour, the pupil diameter is measured. The animals are then given 0.6 mg/kg of carbachol intraperitoneally. After 5 minutes, the saliva secreted as a result of stimulation by carbachol is blotted up with 4 cm wide strips of universal indicator paper (from Merck). The surface area of the paper colored blue by the alkaline saliva serves as a measure of the salivary secretion. The test substance is taken to inhibit salivary secretion if the blue area of the paper is more than 50% smaller than in the case of the controls. Evaluation of the linear relationships between the logarithms of the dose and the frequency of inhibition of salivation is carried out alternatively by Probit analysis.

gastric acid secretion = settings: for ED (pH increase of 0.75): Rattus norvegicus, sc, 1 h, read-out: Inhibition of gastric acid secretion, ED 0.75; for Inhibition of gastric acid secretion, R.E. (relative effectiveness): rat, subcutaneously, relative to pirenzepine = 1.0
Procedure: The inhibition of gastric acid secretion manifests itself in a rise in the pH of the gastric mucosa. It is tested on groups of 5 conscious female Sprague-Dawley rats (160-180 g). The animals are kept without food (but with water ad libitum) for 48 hours and are then pretreated with varying doses of the test substances, administered subcutaneously. After 1 hour, they are narcotized with Na hexobarbital (46.4 mg/kg, given intravenously). A pH electrode (Philips Special Electrode, type CJP) is then introduced into the stomach and the pH at the surface of the gastric mucosa is measured (pH in the untreated animals is 1.40±0.02; N=200). The ED 0.75, ie. the dose which causes an increase in pH averaging 0.75, compared to the pH in the untreated control animals, is determined from the linear regression between logarithm of administered dose and increase in pH.

pupil diameter = assay: Anti-cholinergic side-effect: mydriasis (pupil diameter) in the rat; format: in vivo, Sprague-Dawley rats; settings: administered subcutaneously, 1 hour, dose which increases the pupil diameter by 2 mm
Procedure: as §1, with “To determine anti-cholinergic side-effects (mydriasis, inhibition of salivation), groups of from 5 to 10 female Sprague-Dawley rats (160-200 g) are given the test substance subcutaneously. After 1” for “After 1”, “Probit analysis. The ED 50 is taken to be the dose at which the relative frequency of inhibition of salivation is 50%.” for “Probit analysis.”
(§2) If there is a mydriatic effect, there is a linear regression between the logarithm of the dose and the increase in pupil diameter in mm, from which the ED 2 mm, ie. the dose which increases the pupil diameter by 2 mm, is calculated.

[2] = as above; format: in vivo, Sprague-Dawley rats; settings: in vivo, sc, subcutaneously, ratio of mydriatic to secretion-inhibiting dose, read-out: Mydriatic action, ED 2 mm / ED 0.75
Procedure: as §1, with “To determine anti-cholinergic side-effects (mydriasis, inhibition of salivation), groups of from 5 to 10 female Sprague-Dawley rats (160-200 g) are given the test substance subcutaneously. After 1” for “After 1”, “Probit analysis. The ED 50 is taken to be the dose at which the relative frequency of inhibition of salivation is 50%.” for “Probit analysis.”
as §2

ulcerous lesions = assay: Anti-ulcerogenic effect in the rat (reserpine/indomethacin/cold induced ulcers); format: in vivo, Sprague-Dawley rats; settings: for Anti-ulcerogenic effect, R.E. (relative effectiveness): orally, relative to pirenzepine = 1.0; for ED50: po, 6 h, administered orally, dose which reduces the ulcerated surface area by 50%, read-out: Anti-ulcerogenic effect, ED 50%
Procedure: To examine the anti-ulcerogenic effect, groups of 10 female Sprague-Dawley rats (weighing 160-180 g) are given 1 mg/kg of reserpine intraperitoneally, and are then left for 18 hours without food (but with water ad libitum). After this time, the animals are given 21.5 mg/kg of indomethacin intraperitoneally and the test substance orally; they are then kept for 6 hours at 8° C., after which they are killed. The stomachs are removed and the surface area of ulcerous lesions is determined.

| SMILES | ED50 at 1 h [1] [mg/kg] | selectivity ratio [1] | ED (pH increase of 0.75) (gastric acid secretion) [mg/kg] | Inhibition of gastric acid secretion, R.E. (relative effectiveness) (gastric acid secretion) | Mydriatic action, ED 2 mm (pupil diameter) [mg/kg] | selectivity ratio [2] | Anti-ulcerogenic effect, R.E. (relative effectiveness) (ulcerous lesions) | ED50 (ulcerous lesions) [mg/kg] |
| --- | --- | --- | --- | --- | --- | --- | --- | --- |
| CN1CCN(C(=O)C=C2c3ccccc3NC(=O)c3ccccc32)CC1 (mixture of isomers) [Example 1 cis/trans, cis,trans-11-(4-methyl-piperazin-1-yl)-carboxamidomethylene-5,6-dihydromorphanthridin-6-one] | 99 | 1800 | 0.055 | > 1.6 | > 215 | > 3900 | 3.1 | 2.1 |
| CN1CCN(C(=O)/C=C2/c3ccccc3NC(=O)c3ccccc32)CC1 [Example 1 cis, cis-11-(4-methyl-piperazin-1-yl)-carboxamidomethylene-5,6-dihydro-morphanthridin-6-one] | 50 | 1600 | 0.032 | 2.7 | 198 | 6200 | 3.8 | 1.7 |
| CN1CCN(CC(=O)N2c3ccccc3C(=O)Nc3cccnc32)CC1 [Pirenzepine, 5,11-dihydro-11-[(4-methyl-piperazin-1-yl)-acethyl]-6H-pyrido-[2,3,b][1,4]-benzodiazepin-6-one, reference compound] | 2 | – | 0.086 | – | 1.6 | – | – | 6.5 |
